Test results taken from US20220002728A1, “METHOD FOR PREVENTING OXIDATION OF POLYPHENOL BY MEANS OF APTAMER, MATERIAL THEREOF, AND USE THEREOF” (Nexmos Co., LTD, priority 2018, published 2022).

Experiment: WST-1 assay of EGCG oxidation delay by aptamer
Type: physicochemical
Details: for comparison of EGCG oxidation delay effect of aptamer K4 and aptamer K5: 20 μM aptamer, 500 μM EGCG, 30 minutes, WST-1 assay (FIG. 5); for concentration dependence of EGCG oxidation delay (reduction of WST-1 delayed): 5, 10 and 20 uM aptamer with EGCG, WST-1 assay (FIGS. 3 and 4); for oxidation of EGCG delayed: at 20 uM aptamer, 500 mM EGCG (so in the source), room temperature 30 minutes, WST-1, 440 nm absorbance measured for 16 hours (FIG. 3, FIG. 4)
Method: FIG. 1 is a graph showing the effect of delaying EGCG oxidation in aptamer K1 (SEQ ID NO: 1) to K9 (SEQ ID NO: 9) of the present invention. Nine types of aptamer K from aptamer K1 to aptamer K9 that bind to EGCG were prepared in the same manner as described above. After 20 μM aptamer K1 to K9 and 500 μM EGCG were reacted for 30 minutes, respectively, WST-1 assay was performed. The degree of delaying EGCG oxidation of each aptamer K was compared,
The aptamer (aptamers of SEQ ID NOs: 1 to 9) of the present invention reacting specifically with the EGCG obtained through the SELEX was dissolved in a folding buffer (1 mM MgCl2 in PBS) and then dissolved at 95° C.
After reacting 500 uM EGCG and one of the prepared 20 μM aptamers K1 to K9 and for 30 minutes, WST-1 assay was performed. The degree of EGCG oxidation delay of each aptamer K was compared.
500 mM EGCG and 5, 10, and 20 uM of the prepared aptamer K4 were reacted at room temperature for 30 minutes, respectively, and then WST-1 assay was performed. Prepared sample and WST-1([…]) was reacted to measure the formazan produced and with the plate reader, 440 nm absorbance was measured for 16 hours.
The aptamer K5 (aptamer of SEQ ID NO: 5) that specifically reacts with EGCG obtained through the SELEX was prepared in the same manner as described above and was tested for the effect of delaying EGCG oxidation.
Aptamers K4 and K5 binding to the EGCG were prepared in the same manner as described above. 20 μM aptamer K4, or aptamer K5, and 500 μM EGCG were reacted for 30 minutes, respectively, followed by WST-1 assay. It was confirmed that the EGCG oxidation delay effect of 20 μM aptamer K4 and aptamer K5 was similar (FIG. 5).

Substance	comparison of EGCG oxidation delay effect of aptamer K4 and aptamer K5	concentration dependence of EGCG oxidation delay (reduction of WST-1 delayed)	oxidation of EGCG delayed	concentration dependence of EGCG oxidation delay (reduction of WST-1 delayed) (listed as 1(5))
aptamer K4: DNA aptamer binding EGCG, 30 mer: CGACGACAGGAGGTGCGGCCCCGGCAGACC (DNA, backbone and methylation of C not given here)	similar	delayed (about 33% at 20 uM) depending on the concentration	about 33%	
aptamer K5: DNA aptamer binding EGCG, 29 mer: ACGCATGCCGGGCGCGCTCCCTGTCGTCC (DNA, backbone and methylation of C not given here)	similar	delayed (about 33% at 20 uM) depending on the concentration	about 33%	delayed depending on the concentration
